Laboratory results from the NIST ThermoML archive (doi:10.1016/j.jct.2013.09.001).

Key:
[1] = 101 kPa, Liquid; for viscosity: Concentric cylinders viscometry; for mass density: Vibrating tube method
[2] = xn = mol fraction of the nth substance listed; settings: 101 kPa, Liquid; for viscosity: Concentric cylinders viscometry; for mass density: Vibrating tube method

CC(=O)[O-].CCCCn1cc[n+](C)c1 [1-butyl-3-methylimidazolium acetate]
[1]
Settings	mass density [kg/m3]	viscosity [mPa·s]
293.15 K	1056.1	549.9
303.15 K	1049.6	257.4
313.15 K	1043.5	135.5
323.15 K	1037.4	78.4
333.15 K	1031.3	49
343.15 K	1025.4	32.5
353.15 K	–	22.7

CC(=O)[O-].CCCCn1cc[n+](C)c1 [1-butyl-3-methylimidazolium acetate] + CN(CCO)CCO
[2]
Settings	mass density, x2 = 0 [kg/m3]	mass density, x2 = 0.2 [kg/m3]	mass density, x2 = 0.4 [kg/m3]	mass density, x2 = 0.6 [kg/m3]	mass density, x2 = 0.8 [kg/m3]	viscosity, x2 = 0 [mPa·s]	viscosity, x2 = 0.2 [mPa·s]	viscosity, x2 = 0.4 [mPa·s]	viscosity, x2 = 0.6 [mPa·s]	viscosity, x2 = 0.8 [mPa·s]
293.15 K	1056.1	1052.6	1049.5	1046	1043.4	549.9	369.6	254.3	164.4	117.9
303.15 K	1049.6	1046.1	1043	1039.2	1036.4	257.4	188.9	139.8	94.9	68.9
313.15 K	1043.5	1040.1	1037	1033.1	1029.8	135.5	106.6	83.2	58.8	43.1
323.15 K	1037.4	1034.1	1030.9	1026.8	1023.1	78.4	65	52.9	38.7	28.4
333.15 K	1031.3	1028.1	1024.7	1020.5	1016.4	49	42.3	35.6	26.7	19.7
343.15 K	1025.4	1022.3	1018.8	1014.4	1009.8	32.5	29	25.1	19.3	14.2
353.15 K	–	–	–	–	–	22.7	20.7	18.3	14.4	10.6

CC(=O)[O-].CCCCn1cc[n+](C)c1 [1-butyl-3-methylimidazolium acetate] + OCCNCCO
[2]
Settings	mass density, x2 = 0 [kg/m3]	mass density, x2 = 0.2 [kg/m3]	mass density, x2 = 0.4 [kg/m3]	mass density, x2 = 0.6 [kg/m3]	mass density, x2 = 0.8 [kg/m3]	viscosity, x2 = 0 [mPa·s]	viscosity, x2 = 0.2 [mPa·s]	viscosity, x2 = 0.4 [mPa·s]	viscosity, x2 = 0.6 [mPa·s]	viscosity, x2 = 0.8 [mPa·s]
293.15 K	1056.1	1058.7	1062.8	1068.8	1079.7	549.9	425	319.4	286.8	400.1
303.15 K	1049.6	1052.2	1056.3	1062.3	1073.1	257.4	208.3	176.1	150.8	197
313.15 K	1043.5	1046.2	1050.3	1056.2	1067	135.5	114	95.9	86.8	106.3
323.15 K	1037.4	1040.1	1044.2	1050.2	1060.7	78.4	68.4	59.2	53.8	62.2
333.15 K	1031.3	1034.1	1038.1	1044.1	1054.4	49	43.9	38.9	35.4	38.9
343.15 K	1025.4	1028.2	1032.2	1038.1	1048.3	32.5	29.8	26.9	24.6	25.8
353.15 K	–	–	–	–	–	22.7	21.3	19.4	17.8	17.9

CN(CCO)CCO [N-methyldiethanolamine]
[1]
Settings	mass density [kg/m3]	viscosity [mPa·s]
293.15 K	1040.6	103.3
303.15 K	1032.8	57.3
313.15 K	1025.4	34.1
323.15 K	1017.8	21.6
333.15 K	1010	14.3
343.15 K	1002.3	9.9
353.15 K	–	7.2

CN(CCO)CCO [N-methyldiethanolamine] + CC(=O)[O-].CCCCn1cc[n+](C)c1
[2], x1 = 1
Settings	mass density [kg/m3]	viscosity [mPa·s]
293.15 K	1040.6	103.3
303.15 K	1032.8	57.3
313.15 K	1025.4	34.1
323.15 K	1017.8	21.6
333.15 K	1010	14.3
343.15 K	1002.3	9.9
353.15 K	–	7.2

OCCNCCO [diethanolamine]
[1]
Settings	mass density [kg/m3]	viscosity [mPa·s]
293.15 K	1097.4	–
303.15 K	1090.5	386.6
313.15 K	1083.9	189.7
323.15 K	1077.1	101.2
333.15 K	1070.3	57.9
343.15 K	1063.5	35.3
353.15 K	–	22.7

OCCNCCO [diethanolamine] + CC(=O)[O-].CCCCn1cc[n+](C)c1
[2], x1 = 1
Settings	mass density [kg/m3]	viscosity [mPa·s]
293.15 K	1097.4	–
303.15 K	1090.5	386.6
313.15 K	1083.9	189.7
323.15 K	1077.1	101.2
333.15 K	1070.3	57.9
343.15 K	1063.5	35.3
353.15 K	–	22.7
